Laboratory results reported in patent US10813919B2, “Use of histone deacetylase inhibitors for enhancing immunotherapies” (Indiana University Research and Technology Corporation, priority 2016, dated 2020).

Tests used:
[1] = tested on: MDSC-like cell line J774M; test: T cell suppression assay with entinostat treated J774M cells; format: cell-based; conditions: J774M treated 24 hours in vitro, co-culture with pre-activated CD8+ T cells 68-72 hours
Protocol: The J774M cell line was cultured with DMEM (Corning) media with 10% fetal bovine serum (Corning) and 1% Pen/Strep (Life Technologies). Cells were incubated in 37° C. and 5% CO2. […] T cell isolation & activation: Whole spleens were harvested from naïve mice, mashed and passed through a 70 μm strainer. Cells were then washed, lysed with RBC lysis buffer (Affymetrix 00-4333-57), and cultured in RPMI medium with 10% FBS, Pen (100 units/ml)-Strep ([…]), 1 mM sodium pyruvate, […] non-essential amino-acids, 2 mM L-Glutamine, 55 μM BME, with anti-CD3 (eBioscience 16-0031-85) and anti-CD28 (eBioscience 5012503) for approximately 24 hours. CD8^+ T cells were then isolated using a CD8a^+ T cell isolation kit from Miltenyi Biotec (130-104-075), stained with CFSE (NC9759757), according to the manufacturer's protocol, and co-cultured with MDSCs as described below. T cell suppression assay: T cells (1×10^5; isolated with a CD8a^+ T cell isolation kit; Miltenyi Biotec) were cultured in plates with varying numbers of either G-MDSCs or M-MDSCs isolated from RENCA tumors for 16-18 hours. T cells isolated in the listed method were co-cultured with entinostat treated J774M cells for 68-72 hours. Cells were then harvested, stained and analyzed via FACS analysis.

[2] = tested on: J774M cells; test: J774M cell proliferation or viability; format: cell-based; conditions: 0.01-5 μM, up to 48 hours
Protocol: The J774M cell line was cultured with DMEM (Corning) media with 10% fetal bovine serum (Corning) and 1% Pen/Strep (Life Technologies). Cells were incubated in 37° C. and 5% CO2.

[3] = tested on: RENCA-Luc murine renal cell carcinoma; test: In vivo tumor growth (RENCA), orthotopic RENCA-Luc syngeneic model; design: species or system Balb/c mice; conditions: vs control; entinostat 5 mg/kg oral 5 days/week, anti-PD-1 10 mg/kg I.P.; end-point tumor weight
Protocol: Cell lines: The RENCA-Luc murine renal cell carcinoma cell line, purchased from American Type Culture Collection (National Cancer Institute), was stably transfected with a luciferase reporter in the Pili laboratory. Cells were cultured using RPMI 1640 (Corning) with 10% fetal bovine serum (Corning) and 1% Pen/Strep (Life Technologies). Cells were incubated in an incubator maintained at 37° C. and 5% CO2. 75-80% confluent cells were harvested for orthotopic injection into the kidney of Balb/c mice using 0.25% Trypsin (Corning) and suspended in a 1:1 ratio of MATRIGEL® (Corning) and DPBS (Gibco).
In vivo tumor growth (RENCA): All procedures were performed and approved in strict accordance with the Institutional Animal Care and Use Committee (IACUC) at Roswell Park Cancer Institute, Indiana University School of Medicine, and with the NIH Guide for the Care and Use of Laboratory Animal guidelines.
Female five- to six-week old Balb/c mice (Charles Rivers) were maintained in a temperature controlled room with a 12/12 hour light/dark schedule and food provided ad libitum. 70-80% confluent RENCA-Luc cells were harvested using 0.25% Trypsin (Corning) and suspended in a 1:1 ratio of matrigel (Corning) and HBSS (Gibco), 10 μl containing 1×10^4 cells was injected under the renal capsule. […]

[4] = tested on: iNOS; test: Fold change of iNOS in J774M cells; format: cell-based; conditions: J774M cells treated with entinostat
[5] = tested on: arginase-1 (Arg1); test: Quantitative real-time PCR of Arginase 1 in J774M cells; format: cell-based; conditions: 0.5 μM, 1 μM, 2 μM vs untreated control (p=0.003; 0.0041; 0.0043)
Protocol: Quantitative real-time PCR: mRNA was extracted from J774M cells that were treated±entinostat using standard Trizol protocols. RNA concentration and purity were determined through measurement of A260/280 ratios with a Synergy Hi Multi-Mode reader. cDNA was prepared using the iScript kit (Bio-Rad) and qPCR was performed using an Applied Biosystems 7900HT fast real time PCR system. Sequence Detection Systems software v2.3 was used to identify the cycle threshold (Ct) values and to generate gene expression curves. Data were normalized to Gapdh expression and fold change was calculated. The primers used for target genes were: Gapdh_foward 5′-[…]-3′, Gapdh_reverse 5′-[…]-3′ (SEQ ID NO:1), Arginase 1_forward 5′-[…]-3′ (SEQ ID NO:2), and Arginase 1_reverse 5′-[…]-3′ (SEQ ID NO:3).

[6] = tested on: G-MDSCs or M-MDSCs isolated from RENCA tumors; test: T cell suppression assay, ex vivo, MDSCs isolated from RENCA tumors of treated mice; format: cell-based, mouse
Protocol: T cell isolation & activation: Whole spleens were harvested from naïve mice, mashed and passed through a 70 μm strainer. Cells were then washed, lysed with RBC lysis buffer (Affymetrix 00-4333-57), and cultured in RPMI medium with 10% FBS, Pen (100 units/ml)-Strep ([…]), 1 mM sodium pyruvate, […] non-essential amino-acids, 2 mM L-Glutamine, 55 μM BME, with anti-CD3 (eBioscience 16-0031-85) and anti-CD28 (eBioscience 5012503) for approximately 24 hours. CD8^+ T cells were then isolated using a CD8a^+ T cell isolation kit from Miltenyi Biotec (130-104-075), stained with CFSE (NC9759757), according to the manufacturer's protocol, and co-cultured with MDSCs as described below. MDSC Isolation: MDSCs were isolated from RENCA tumors of each group using Miltenyi Biotec's Myeloid Derived Suppressor Cell Isolation Kit (130-094-538) and co-cultured with isolated CD8^+ T cells in serially diluted concentrations. T cell suppression assay: T cells (1×10^5; isolated with a CD8a^+ T cell isolation kit; Miltenyi Biotec) were cultured in plates with varying numbers of either G-MDSCs or M-MDSCs isolated from RENCA tumors for 16-18 hours. T cells isolated in the listed method were co-cultured with entinostat treated J774M cells for 68-72 hours. Cells were then harvested, stained and analyzed via FACS analysis. Cell staining and flow cytometry: Splenocytes, tumor cell suspensions, and peripheral blood cells were washed, blocked with Fc Block (anti-mouse CD16/32 mAb; BD Biosciences) at 4° C. for 15 minutes, and stained with fluorescence conjugated antibodies against surface markers: CD45 (clone 30-F11), CD11b (clone M1/70), Gr1 (clone RB6-8C5), Ly6C (clone AL-21), Ly6G (clone 1A8), F480 (clone BM8), CD8a (clone 53-6.7), CD4 (clone RM4-5) antibodies purchased from BioLegend, eBioscience or BD Biosciences. Cells were then fixed in Fixation/Permeabilization buffer (eBioscience) and stained with antibodies against intracellular proteins, including FoxP3 (NRRF-30) and Granzyme B (clone GB11). The antibodies were purchased from BD Biosciences, Biolegend, and R&D Systems and used in staining. […]

[7] = tested on: chemokines and cytokines; test: Proteome Profiler Mouse XL Cytokine array (Ary028) of tumor lysates and serum; format: in vivo
Protocol: Proteome Profile: Tumor tissue was homogenized in PBS containing protease inhibitors. Following homogenization, Triton X-100 was added to a final concentration of 1%, frozen at −80° C., thawed, centrifuged as 10,000 g for 5 minutes, quantified and assayed according to the manufacturer's protocol. Blood samples were collected from mice in each cohort, allowed to clot for 2 hours at room temperature, centrifuged at 2000 g for 15 minutes. Serum samples were frozen at −80° C. until time of analysis at which time they were run according to manufacturer's protocol. All samples were processed and run on R&D Systems mouse XL cytokine array kit (Ary028).

[8] = tested on: T regulatory cells (CD4+FoxP3+); test: FACS analysis of T regulatory cells in end-point blood and tumor samples; format: in vivo, Balb/c mice; conditions: blood
Protocol: (§1) Tumor suspension and spleenocyte preparation: Live tumor sections were isolated from tumors, cut into small pieces, and digested with an enzyme cocktail solution from the mouse tumor dissociation kit (Miltenyi Biotec—130-096-730). Tumors were incubated with the enzyme cocktail for 30 minutes at 37° C. with agitation. The enzyme reaction was arrested using PBS, cells were spun at 300 g, 4° C. for 7 minutes, re-suspended in PBS and mashed through a 70 um cell strainer. Cells from these tumors were either used for flow cytometry analysis or further processed and used for functional analyses.
Cell staining and flow cytometry: Splenocytes, tumor cell suspensions, and peripheral blood cells were washed, blocked with Fc Block (anti-mouse CD16/32 mAb; BD Biosciences) at 4° C. for 15 minutes, and stained with fluorescence conjugated antibodies against surface markers: CD45 (clone 30-F11), CD11b (clone M1/70), Gr1 (clone RB6-8C5), Ly6C (clone AL-21), Ly6G (clone 1A8), F480 (clone BM8), CD8a (clone 53-6.7), CD4 (clone RM4-5) antibodies purchased from BioLegend, eBioscience or BD Biosciences. Cells were then fixed in Fixation/Permeabilization buffer (eBioscience) and stained with antibodies against intracellular proteins, including FoxP3 (NRRF-30) and Granzyme B (clone GB11). The antibodies were purchased from BD Biosciences, Biolegend, and R&D Systems and used in staining. […]

[9] = tested on: Myeloid derived suppressor cells (G-MDSCs, M-MDSCs); test: FACS analysis of G-MDSC and M-MDSC in tumor and blood; format: in vivo, Balb/c mice
Protocol: as §1
Cell staining and flow cytometry: Splenocytes, tumor cell suspensions, and peripheral blood cells were washed, blocked with Fc Block (anti-mouse CD16/32 mAb; BD Biosciences) at 4° C. for 15 minutes, and stained with fluorescence conjugated antibodies against surface markers: CD45 (clone 30-F11), CD11b (clone M1/70), Gr1 (clone RB6-8C5), Ly6C (clone AL-21), Ly6G (clone 1A8), F480 (clone BM8), CD8a (clone 53-6.7), CD4 (clone RM4-5) antibodies purchased from BioLegend, eBioscience or BD Biosciences. Cells were then fixed in Fixation/Permeabilization buffer (eBioscience) and stained with antibodies against intracellular proteins, including FoxP3 (NRRF-30) and Granzyme B (clone GB11). The antibodies were purchased from BD Biosciences, Biolegend, and R&D Systems and used in staining. Stained cells and isotype-control-stained cells, were assayed on a LSR4 or Fortessa flow cytometer (BD Biosciences). Data analysis was performed using the FlowJo (FlowJo LLC) and/or ModFit LT 4.1 software.

[10] = tested on: advanced renal cell carcinoma; conditions: advanced renal cell carcinoma patients, cited from earlier work

| Compound | CD8+ T cell proliferation in co-culture with treated J774M cells [1] | J774M cell proliferation or viability [2] | tumor growth inhibition [3] | iNOS fold change [4] | arginase-1 (Arg1) expression [5] | capacity of MDSCs (G-MDSC or M-MDSC) to inhibit CD8+ T cell proliferation ([6]; MDSC to T cell ratios 1:1, 0.5:1, 0.25:1, co-culture 16-18 hours, mice treated in vivo, p≤0.01) | CD8+ T cell proliferation in co-culture with MDSCs from treated mice ([6]; co-culture 16-18 hours, similar to control stimulated CD8+ T cells alone) | increase in Granzyme B production by CD8+ T cells ([6]; compared to co-culture with MDSCs from untreated tumor-bearing mouse, p<0.01) | circulating pro-tumor associated chemokines and cytokines ([7]; serum vs control, adiponectin, angiopoietin-2, chitinase 3-like 1, CCL12, C5, c-reactive protein, IL-6, pentraxins 2/3, periostin, CCL17, M-CSF, GM-CSF, MMP-2, MMP-9, CCL2, osteoprotegerin, VCAM) | MDSC associated trafficking/accumulation and expansion/activation cytokines in the TME ([7]; tumor lysates vs control, CCL2, VCAM-1/CD106, Angiopoietin-2, G-CSF, GM-CSF, IL-1β, IL-10) | anti-tumor chemokines and cytokines in the TME ([7]; tumor lysates vs control, CXCL10/IP-10, E-selectin, IL-1ra, IL-4, IL-12p40) | upregulation of anti-tumor cytokines/chemokines ([7]; vs control cohort, CXCL9, CXCL10, IL-4, IL-13, E-selectin, IL-12p40) | FoxP3 protein levels (MFI) in circulating CD4+FoxP3+ cells [8] | tumor infiltrating G-MDSC population ([9]; TME, vs control) | tumor infiltrating M-MDSC population ([9]; TME, vs control) | circulating G-MDSCs ([9]; blood) | circulating M-MDSCs ([9]; blood) | treatment related adverse events [10] | increase in overall survival ([10]; compared to standard of care, everolimus) |
| --- | --- | --- | --- | --- | --- | --- | --- | --- | --- | --- | --- | --- | --- | --- | --- | --- | --- | --- | --- |
| Nc1ccccc1NC(=O)c1ccc(CNC(=O)OCc2cccnc2)cc1 [entinostat, Pyridin-3-ylmethyl N-[[4-[(2-aminophenyl)carbamoyl]phenyl]methyl]carbamate] | significant increase | no significant alteration | 52.6% | inconclusive results | significant inhibition | significant reduction | ~90% | approximately 40% | Significant decreases | significant reduction | significant upregulation | note observed | significant decrease | slight increase | slight increase | slight decreases | significant increases |  |  |
| nivolumab: a PD-1 inhibitor, immune checkpoint inhibitor approved for advanced renal cell carcinoma |  |  |  |  |  |  |  |  |  |  |  |  |  |  |  |  |  | limited treatment related adverse events | 78% |
